The source of these data is US20260265055A1, “Sulfine-Based Compounds for Generating Hydrogen Persulfide” (Brown University, priority 2023, published 2026).

Each structure is given as a SMILES string.

Assay [1] is described as follows: Monitoring H2S2 formation from the TTS-TAGDD hybrid compound 3 (SSP4, 12 h). Conditions: over 12 hours. The method, then: Monitoring H2S2 formation from the TTS-TAGDD hybrid compound 3: TTS and 3 were prepared as 1 mM solutions in DMSO. L-cysteine and Na2S2 were prepared at 4 mM and 1 mM in MilliQ H2O, respectively. SSP4 was dissolved in DMSO to obtain a 200 μM stock solution. CTAB was dissolved in ethanol to yield a 2 mM stock solution. 50 mM PBS buffer (pH 7.4) was added to individual wells of a black polystyrene, flat-bottomed clear 96-well plate, followed by TTS (25 μM) or 3 (25 μM) then cysteine (100 μM) or Na2S2 (25 μM). Samples were mixed by pipetting up and down and incubated in the dark at room temperature (rt) for 30 min. Next, CTAB (50 μM) was added to all wells followed by SSP4 (5 μM), and samples were mixed by pipetting up and down. Samples were then incubated in the dark at room temperature for another 30 min before being measured on a Molecular Devices SpectraMax iD3 Multi-Mode Microplate Reader (fluorescence mode; kinetics measurement type; emission 535 nm; excitation 485 nm; integration time […], low PMT sensitivity, attenuation 1, read height 1.00 mm; total run time: 12 hours; 25 cycles; interval: 0.5 hours). Data was graphed as a time dependent fluorescence response, with F0 as the SSP4 only condition. The fluorescence of Na2S2 over time was not represented in the line graph presented due to the compound's known instability. Data obtained from the 12 h time point including from Na2S2 was also represented in a bar graph for greater clarity. Results were expressed as mean±SEM (n=3).

The next assay deals with T1, GAPDH (Oryctolagus cuniculus, UniProt P46406).
T1 construct: GAPDH (from rabbit muscle, #G2267, Sigma-Aldrich); purchased Sigma-Aldrich G2267; host or cells: rabbit muscle (tissue-purified)
The assay is described as follows: GAPDH protein S-persulfidation (SSP4 fluorescence, LC-MS/MS). The format is biochemical, rabbit. As to conditions: reduced GAPDH 100 μM treated with the reagent only (1 mM). The procedure: One of the primary functions of H2S2 is to induce protein S-persulfidation. Existing methods treat proteins with Na2S2 directly to obtain the persulfidated proteins. The present disclosure contemplates the use of TTS and H2S to persulfidate proteins as a comparison with Na2S2. GAPDH was used as the protein model and its persulfidation was evaluated by SSP4 using a protocol described in Shieh, M. et al., Shining a light on SSP4: a comprehensive analysis and biological applications for the detection of sulfane sulfurs. Redox Biol. 2022, 56, 102433 and Ni, X. et al., A sweet H2S/H2O2 dual release system and specific protein S-persulfidation mediated by thioglucose/glucose oxidase. J. Am. Chem. Soc. 2021, 143, 13325-13332. Reduced GAPDH (100 μM) was individually treated with 10 eq. of TTS+Na2S or Na2S2, as well as control reagents (TTS or Na2S only). The protein samples were then purified using Zeba Spin Desalting Columns (7K MWCO), diluted (to 10 μM), and treated with SSP4 (5 μM). Fluorescence signals were recorded to reflect persulfidation levels. […] To provide further evidence of persulfidation in the GAPDH system, TTS+Na2S-treated GAPDH was alkylated with HPE-IAM to stabilize the protein persulfides.
216 μL of PBS (50 mM, pH 7.4) was added to 3.9 mg of GAPDH (from rabbit muscle, #G2267, Sigma-Aldrich) to obtain a concentration of 500 μM (MW: 36 kDa). DTT (10 mM in DMSO, 11.35 μL) was added for a final equal concentration with the GAPDH. The solution was incubated in the dark at room temperature for 30 min. Zeba 7K MWCO spin columns were prepared and used according to manufacturer's instructions with 3 PBS washes. Excess reductant was removed by column purification with the Zeba 7K MWCO columns. The resulting reduced protein concentration was determined by the absorbance at 280 nm (εmM=30.4 mM-1 cm-1) using the Nanodrop One Microvolume UV-Vis Spectrophotometer (ThermoFisher Scientific). For controls, reduced GAPDH was treated with NEM (1:5 equiv.) and incubated at rt in the dark for 30 min before excess NEM was removed by the Zeba 7K MWCO columns. Next, the reduced protein was diluted to a final concentration of 100 μM in a final volume of 100 μL and treated with TTS (10 μL of 10 mM in DMSO for a final concentration of 1 mM), Na2S (10 μL of 10 mM in MilliQ H2O for a final concentration of 1 mM), both TTS and Na2S, or Na2S2 (10 μL of 10 mM in MilliQ H2O for a final concentration of 1 mM). For example, if the reduced protein (361 μM) was only to be treated with TTS, 62.3 μL of PBS (50 mM, pH 7.4) would first be added to an Eppendorf tube, followed by 27.7 μL of protein, and followed by 10 μL of TTS. TTS+Na2S and Na2S2 samples were also prepared at the concentrations above without any protein, where PBS (50 mM, pH 7.4) was used in place of the proteins (volume-wise). Samples were incubated at room temperature for 30 min in the dark before being purified by Zeba 7K MWCO columns (three times to ensure proper removal of excess treatment molecules) and quantified by absorbance. […] All samples were then incubated with SSP4 (5 μL of 100 μM in DMSO for a final concentration of 5 μM) in individual wells of a black clear flat bottom 96-well plate. The final volume was 100 μL. For example, if the persulfidated protein (99.5 μM) was to be examined, 84.95 μL of PBS (50 mM, pH 7.4) would first be added to a well, followed by 10.05 μL of protein, and then followed by 5 μL of SSP4. Incubation occurred at room temperature in the dark for 30 min before being measured on the SpectraMax iD3 microplate reader (ex: 485 nm; em: 525 nm).

In a further assay the test system is HeLa cells. Briefly: Live cell imaging of H2S2 formation with SSP4. Conditions: compound only, 30 min. The class given is cell-based. The method, then:
HeLa cells were seeded at ~7000 cells/well in a 96-well clear flat-bottomed BioLite plate (ThermoFisher Scientific, #130188) in DMEM/F12 (1:1) (Gibco, Invitrogen, #11330-032) medium supplemented with 10% fetal bovine serum (FBS) at 37° C., 5% CO2 overnight.
Preparation before cell treatment: Na2S and Na2S2 stocks were prepared at 10 mM in sterile 1×PBS. TTS and TT were prepared at 10 mM concentrations in DMSO. They were then diluted to 50 μM concentrations in serum-free Fluorobrite DMEM in individual Eppendorf tubes (0.5% DMSO). Na2S (final concentration=100 μM) was added to the Eppendorf tube containing Fluorobrite DMEM and TTS or TT immediately before being added to the cells. Compounds were mixed by pipetting up and down prior to cell addition.
Cell treatment: Culturing media was aspirated from all wells, and cells were washed twice with 1×PBS. Compounds were added to cells (200 μL/well) and incubated for 30 min at 37° C., 5% CO2. While cells were incubating, SSP4 treatment was prepared by first adding 5 mM CTAB in ethanol to Fluorobrite DMEM followed by 6.125 mM SSP4 in DMSO to final concentrations of 100 μM and 5 μM, respectively, in a tube. The final volume was 5 mL (0.08% DMSO). Compounds were mixed by pipetting up and down prior to cell addition. After incubation, media was aspirated, and cells were washed twice with 1×PBS. SSP4 treatment was added to all wells (100 μL/well), and cells were incubated for 30 min at 37° C., 5% CO2 for 30 min. Media was then aspirated, and cells were washed three times with 1×PBS. Fluorobrite DMEM was added to all wells before imaging on the Keyence All-in-One Fluorescence Microscope (BZ-X810) (excitation: 470/40 nm; emission: 525/50 nm).
As shown in FIGS. 4(A)-(D), HeLa cells were treated with TTS, TTS+H2S, or TT for 30 min before the fluorescent sensor SSP4 was applied to the cells to monitor the formation of H2S2. […] Na2S2 was used as the positive control in this study (FIG. 4D). Other control studies including TT+H2S, H2S only, and SSP4 only were also performed. […] FIG. 4H is a graph of fluorescence intensities of SSP4 staining. Data are mean values ±SEM calculated using ImageJ. (n=9, where three different images were obtained from each of three samples and quantified).

T1 sequence (P46406 whole entry): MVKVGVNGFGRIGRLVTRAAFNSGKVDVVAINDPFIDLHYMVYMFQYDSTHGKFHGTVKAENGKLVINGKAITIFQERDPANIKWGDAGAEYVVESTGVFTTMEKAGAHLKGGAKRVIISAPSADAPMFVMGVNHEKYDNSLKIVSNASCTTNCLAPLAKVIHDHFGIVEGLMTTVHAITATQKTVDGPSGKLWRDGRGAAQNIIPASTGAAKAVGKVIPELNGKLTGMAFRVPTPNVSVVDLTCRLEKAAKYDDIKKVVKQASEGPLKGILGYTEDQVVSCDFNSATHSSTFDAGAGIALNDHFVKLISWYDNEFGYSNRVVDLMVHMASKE

Take `CC(=O)SC(SC(C)=O)c1cccc(OC(=O)c2ccc(=S=O)sc2)c1` [Compound 3]: in assay [1] (25 μM compound + Cys 100 μM), the “H2S2 formation monitored by SSP4 signals” value was “steady and continuous H2S2 formation”. For the same compound, the SSP4 fluorescence entry in assay [1] (25 μM compound only) is listed as “did not give any notable fluorescence”.
As for `[Na+].[Na+].[S-][S-]` [Na2S2, reference compound], the “SSP4 fluorescence of persulfidated GAPDH” value on GAPDH was “strong fluorescence”.
Take `[Na+].[Na+].[S-2]` [Na2S, reference compound]: the “SSP4 fluorescence in HeLa cells” value with HeLa cells is “Obvious fluorescence in these samples was not observed”. Also, the “SSP4 fluorescence of persulfidated GAPDH” value on GAPDH is given as “did not give any notable fluorescence”.
